# Laboratory results: US20240082228A1, “SARS-COV-2 THERAPEUTICS” (priority 2021, published 2024)
# Values joined by “and” are separate entries in the source; they are usually repeats but may differ in a detail not shown here. Identical values can stand only once.
# Tested on: not given
# Assay: not given
# Conditions: 1 uM; call rule not given here
row,Compound,Toxic (1 uM)
1,"FC(F)(F)c1cccc(C2=CCN(CCc3ccc4ccccc4c3)CC2)c1 [Xaliproden, xaliproden]",0 (non-toxic (Normalized Cell number>0.65)
2,cefonicid,0 (non-toxic (Normalized Cell number>0.65)
3,lonafarnib,0 (non-toxic (Normalized Cell number>0.65)
4,osanetant,0 (non-toxic (Normalized Cell number>0.65)

# Same assay, conditions: 5 uM
row,Compound,Toxic (5 uM)
1,"COc1nc2ccc(Br)cc2cc1[C@@H](c1ccccc1)[C@@](O)(CCN(C)C)c1cccc2ccccc12 [TMC207, bedaquiline]",0 (non-toxic (Normalized Cell number>0.65)
2,"FC(F)(F)c1cccc(C2=CCN(CCc3ccc4ccccc4c3)CC2)c1 [Xaliproden, xaliproden]",0 (non-toxic (Normalized Cell number>0.65)
3,cefonicid,0 (non-toxic (Normalized Cell number>0.65)
4,osanetant,0 (non-toxic (Normalized Cell number>0.65)

# Same assay, conditions: compound at 1 uM, average of normalized cell number, n=3, relative to DMSO
row,Compound,Average Cell Number (1 uM)
1,"CCCCC[C@H](O)/C=C/[C@@H]1[C@@H](C/C=C\CCCC(=O)O)[C@@H](O)C[C@H]1O [Prostagladin F2a, dinoprost]",0.8973
2,"COc1nc2ccc(Br)cc2cc1[C@@H](c1ccccc1)[C@@](O)(CCN(C)C)c1cccc2ccccc12 [TMC207, bedaquiline]",0.6048
3,"FC(F)(F)c1cccc(C2=CCN(CCc3ccc4ccccc4c3)CC2)c1 [Xaliproden, xaliproden]",0.7188
4,cefonicid,0.9122
5,lonafarnib,0.6561
6,osanetant,0.6882

# Same assay, conditions: compound at 1 uM, single replicate, raw cell count
row,Compound,Cell Number (1 uM)
1,"COc1nc2ccc(Br)cc2cc1[C@@H](c1ccccc1)[C@@](O)(CCN(C)C)c1cccc2ccccc12 [TMC207, bedaquiline]",3465 and 3507 and 3661
2,"FC(F)(F)c1cccc(C2=CCN(CCc3ccc4ccccc4c3)CC2)c1 [Xaliproden, xaliproden]",4440 and 4549 and 3647
3,cefonicid,5339 and 5337 and 5361
4,lonafarnib,3801 and 4072 and 3662
5,osanetant,4045 and 3932 and 4122

# Same assay, conditions: compound at 1 uM, single replicate, relative to negative control DMSO
row,Compound,Normalized Cell Number (1 uM)
1,"CCCCC[C@H](O)/C=C/[C@@H]1[C@@H](C/C=C\CCCC(=O)O)[C@@H](O)C[C@H]1O [Prostagladin F2a, dinoprost]",0.8613 and 0.9247 and 0.906
2,"COc1nc2ccc(Br)cc2cc1[C@@H](c1ccccc1)[C@@](O)(CCN(C)C)c1cccc2ccccc12 [TMC207, bedaquiline]",0.5913 and 0.5985 and 0.6247
3,"FC(F)(F)c1cccc(C2=CCN(CCc3ccc4ccccc4c3)CC2)c1 [Xaliproden, xaliproden]",0.7577 and 0.7763 and 0.6224
4,cefonicid,0.9111 and 0.9108 and 0.9148
5,lonafarnib,0.6486 and 0.6949 and 0.6249
6,osanetant,0.6903 and 0.671 and 0.7034

# Same assay, conditions: compound at 5 uM, average of normalized cell number, n=3, relative to DMSO
row,Compound,Average Cell Number (5 uM)
1,"CCCCC[C@H](O)/C=C/[C@@H]1[C@@H](C/C=C\CCCC(=O)O)[C@@H](O)C[C@H]1O [Prostagladin F2a, dinoprost]",0.9858
2,"COc1nc2ccc(Br)cc2cc1[C@@H](c1ccccc1)[C@@](O)(CCN(C)C)c1cccc2ccccc12 [TMC207, bedaquiline]",0.8191
3,"FC(F)(F)c1cccc(C2=CCN(CCc3ccc4ccccc4c3)CC2)c1 [Xaliproden, xaliproden]",0.9135
4,cefonicid,0.9876
5,lonafarnib,0.6416
6,osanetant,0.7783

# Same assay, conditions: compound at 5 uM, single replicate, raw cell count
row,Compound,Cell Number (5 uM)
1,"COc1nc2ccc(Br)cc2cc1[C@@H](c1ccccc1)[C@@](O)(CCN(C)C)c1cccc2ccccc12 [TMC207, bedaquiline]",5108 and 4528 and 4927
2,"FC(F)(F)c1cccc(C2=CCN(CCc3ccc4ccccc4c3)CC2)c1 [Xaliproden, xaliproden]",5577 and 5737 and 4927
3,cefonicid,5781 (2×) and 5996
4,lonafarnib,3696 and 3879 and 3831
5,osanetant,4466 and 4973 and 4398

# Same assay, conditions: compound at 5 uM, single replicate, relative to negative control DMSO
row,Compound,Normalized Cell Number (5 uM)
1,"CCCCC[C@H](O)/C=C/[C@@H]1[C@@H](C/C=C\CCCC(=O)O)[C@@H](O)C[C@H]1O [Prostagladin F2a, dinoprost]",0.988 and 0.9765 and 0.9929
2,"COc1nc2ccc(Br)cc2cc1[C@@H](c1ccccc1)[C@@](O)(CCN(C)C)c1cccc2ccccc12 [TMC207, bedaquiline]",0.8619 and 0.7641 and 0.8314
3,"FC(F)(F)c1cccc(C2=CCN(CCc3ccc4ccccc4c3)CC2)c1 [Xaliproden, xaliproden]",0.9411 and 0.9681 and 0.8314
4,cefonicid,0.9755 (2×) and 1.012
5,lonafarnib,0.6546 and 0.6465
6,osanetant,0.7536 and 0.8392 and 0.7421

# Tested on: SARS-CoV-2
# Assay: microbe, parasite or virus in culture
# Type: cell-based
# Conditions: not given
Compound,Average Infection (1 uM),Average Infection (5 uM)
cefonicid,−0.4929,0.04523
lonafarnib,−0.6667,−1.3

# Same assay, conditions: 1 uM
row,Compound,"HIT (2 Std, 1 uM)"
1,"CCCCC[C@H](O)/C=C/[C@@H]1[C@@H](C/C=C\CCCC(=O)O)[C@@H](O)C[C@H]1O [Prostagladin F2a, dinoprost]",HIT
2,"COc1nc2ccc(Br)cc2cc1[C@@H](c1ccccc1)[C@@](O)(CCN(C)C)c1cccc2ccccc12 [TMC207, bedaquiline]",HIT
3,"FC(F)(F)c1cccc(C2=CCN(CCc3ccc4ccccc4c3)CC2)c1 [Xaliproden, xaliproden]",HIT
4,cefonicid,HIT
5,lonafarnib,HIT
6,osanetant,HIT

# Same assay, conditions: 1 uM, average log2FC infection (n=3) relative to DMSO
row,Compound,Average Infection (1 uM)
1,"CCCCC[C@H](O)/C=C/[C@@H]1[C@@H](C/C=C\CCCC(=O)O)[C@@H](O)C[C@H]1O [Prostagladin F2a, dinoprost]",−0.6806
2,"COc1nc2ccc(Br)cc2cc1[C@@H](c1ccccc1)[C@@](O)(CCN(C)C)c1cccc2ccccc12 [TMC207, bedaquiline]",−0.3556
3,"FC(F)(F)c1cccc(C2=CCN(CCc3ccc4ccccc4c3)CC2)c1 [Xaliproden, xaliproden]",−0.6769
4,osanetant,−0.8388

# Same assay, conditions: 1 uM, single replicate of triplicate
row,Compound,% Infection (1 uM)
1,cefonicid,19.07% and 19.19% and 17.78%
2,lonafarnib,17.44% and 15.37%
3,osanetant,13.75% and 14.37% and 16.0359%

# Same assay, conditions: 1 uM, single replicate, relative to negative control DMSO
Compound,Normalized Infection (1 uM),log2FC Infection (1 uM)
cefonicid,0.7259 and 0.7305 and 0.6768,−0.4622 and −0.4531 and −0.5633
lonafarnib,0.6641 and 0.5853,−0.5906 and −0.7727
osanetant,0.5233 and 0.547 and 0.6105,−0.9343 and −0.8703 and −0.7119

# Same assay, conditions: 5 uM
row,Compound,"HIT (2 Stdv, 5 uM)"
1,"COc1nc2ccc(Br)cc2cc1[C@@H](c1ccccc1)[C@@](O)(CCN(C)C)c1cccc2ccccc12 [TMC207, bedaquiline]",HIT
2,lonafarnib,HIT
3,osanetant,HIT

# Same assay, conditions: 5 uM, average log2FC infection (n=3) relative to DMSO
row,Compound,Average Infection (5 uM)
1,"CCCCC[C@H](O)/C=C/[C@@H]1[C@@H](C/C=C\CCCC(=O)O)[C@@H](O)C[C@H]1O [Prostagladin F2a, dinoprost]",−0.2282
2,"COc1nc2ccc(Br)cc2cc1[C@@H](c1ccccc1)[C@@](O)(CCN(C)C)c1cccc2ccccc12 [TMC207, bedaquiline]",−0.559
3,"FC(F)(F)c1cccc(C2=CCN(CCc3ccc4ccccc4c3)CC2)c1 [Xaliproden, xaliproden]",−0.143
4,osanetant,−3.987

# Same assay, conditions: 5 uM, single replicate of triplicate
row,Compound,% Infection (5 uM)
1,cefonicid,16.97% and 13.67% and 17.29%
2,lonafarnib,6.304% and 5.672% and 6.839%
3,osanetant,0.9628% and 1.307% and 0.7276%

# Same assay, conditions: 5 uM, single replicate, relative to negative control DMSO
Compound,Normalized Infection (5 uM),log2FC Infection (5 uM)
cefonicid,1.102 and 0.8875 and 1.123,0.1402 and −0.1722 and 0.1676
lonafarnib,0.4094 and 0.3683 and 0.4442,−1.288 and −1.441 and −1.171
osanetant,0.06253 and 0.08489 and 0.04725,−3.999 and −3.558 and −4.403

# Same assay, conditions: Severe acute respiratory syndrome coronavirus 2, 1 uM, single replicate, relative to negative control DMSO; read-out: Normalized Infection (1 uM)
row,Compound,activity at 1 µM [%]
1,"CCCCC[C@H](O)/C=C/[C@@H]1[C@@H](C/C=C\CCCC(=O)O)[C@@H](O)C[C@H]1O [Prostagladin F2a, dinoprost]",58.9
2,"COc1nc2ccc(Br)cc2cc1[C@@H](c1ccccc1)[C@@](O)(CCN(C)C)c1cccc2ccccc12 [TMC207, bedaquiline]",72.7

# Same assay, conditions: Severe acute respiratory syndrome coronavirus 2, 5 uM, single replicate, relative to negative control DMSO; read-out: Normalized Infection (5 uM)
row,Compound,activity at 5 µM [%]
1,"CCCCC[C@H](O)/C=C/[C@@H]1[C@@H](C/C=C\CCCC(=O)O)[C@@H](O)C[C@H]1O [Prostagladin F2a, dinoprost]",83.1
2,"COc1nc2ccc(Br)cc2cc1[C@@H](c1ccccc1)[C@@](O)(CCN(C)C)c1cccc2ccccc12 [TMC207, bedaquiline]",65.9

# Same assay, conditions: overall, 1 or 5 uM
row,Compound,HIT
1,"CCCCC[C@H](O)/C=C/[C@@H]1[C@@H](C/C=C\CCCC(=O)O)[C@@H](O)C[C@H]1O [Prostagladin F2a, dinoprost]",Yes
2,"COc1nc2ccc(Br)cc2cc1[C@@H](c1ccccc1)[C@@](O)(CCN(C)C)c1cccc2ccccc12 [TMC207, bedaquiline]",Yes
3,"FC(F)(F)c1cccc(C2=CCN(CCc3ccc4ccccc4c3)CC2)c1 [Xaliproden, xaliproden]",Yes
4,cefonicid,Yes
5,lonafarnib,Yes
6,osanetant,Yes
